Measurements from PMC3291479 (2011).
Read-outs that look alike come from different tables or passages of the source.

Assays:
Assay type in all cases: biochemical
[1] = molecular target: T1, NRH:quinone oxidoreductase 2 (NQO2) (Homo sapiens, UniProt P16083); experiment: rhNQO2 resazurin reduction, 96-well fluorescence assay
T1 sequence (P16083 1-231): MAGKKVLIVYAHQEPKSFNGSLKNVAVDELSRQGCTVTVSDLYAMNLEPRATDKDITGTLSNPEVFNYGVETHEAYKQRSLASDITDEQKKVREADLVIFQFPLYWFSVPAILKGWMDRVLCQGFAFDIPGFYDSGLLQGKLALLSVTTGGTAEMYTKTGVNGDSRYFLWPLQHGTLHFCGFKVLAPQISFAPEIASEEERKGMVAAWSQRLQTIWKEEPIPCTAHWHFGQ

[2] = molecular target: T1, NRH:quinone oxidoreductase 2 (NQO2); experiment: NRH-dependent inactivation of rhNQO2; settings: read-out: rhNQO2 inhibition at 1μM ^a
[3] = molecular target: T1, NRH:quinone oxidoreductase 2 (NQO2); experiment: NRH-dependent inactivation of rhNQO2; settings: read-out: rhNQO2 inhibition at 1μM ^a; remark: listed apart in the source
[4] = molecular target: T1, NRH:quinone oxidoreductase 2 (NQO2); experiment: NRH-dependent inactivation of rhNQO2; settings: read-out: rhNQO2 inhibition at 1μM ^a; remark: listed apart in the source

| Structure (SMILES) | rhNQO2 resazurin reduction, 96-well fluorescence assay [1] | also measured |
| --- | --- | --- |
| Cc1ccc(NC(=O)c2ccc(CN3CCN(C)CC3)cc2)cc1Nc1nccc(-c2cccnc2)n1 [imatinib] | quercetin, imatinib, resveratrol, chloroquine, and melatonin for their ability to inhibit rhNQO2 activity in a cell-free system |  |
| Oc1ccc(/C=C/c2cc(O)cc(O)c2)cc1 [resveratrol] | quercetin, imatinib, resveratrol, chloroquine, and melatonin for their ability to inhibit rhNQO2 activity in a cell-free system |  |
| O=c1c(O)c(-c2ccc(O)c(O)c2)oc2cc(O)cc(O)c12 [quercetin] | quercetin, imatinib, resveratrol, chloroquine, and melatonin for their ability to inhibit rhNQO2 activity in a cell-free system |  |
| Cc1c(COc2ccc([N+](=O)[O-])cc2)c2c(n1C)C(=O)C=C(NCCCCN)C2=O [compound 1, 5-(4-aminobutyl)amino-1,2-dimethyl-3-[(4-nitrophenoxy)methyl]indole-4,7-dione] |  | inhibition at 1 µM [2]: 96% |
| Cc1c(COc2c(F)cc(F)cc2F)c2c(n1C)C(=O)C(NCCCCN)=CC2=O [compound 3, 6-(4-aminobutyl)amino-1,2-dimethyl-3-[(2,4,6-trifluorophenoxy)methyl]indole-4,7-dione] |  | inhibition at 1 µM [3]: 33% |
| Cc1c(COc2c(F)cc(F)cc2F)c2c(n1C)C(=O)C=C(NCCCCN)C2=O [compound 2, 5-(4-aminobutyl)amino-1,2-dimethyl-3-[(2,4,6-trifluorophenoxy)methyl]indole-4,7-dione] |  | inhibition at 1 µM [4]: 96% |
| CCN(CC)CCCC(C)Nc1ccnc2cc(Cl)ccc12 (stereo not shown) [chloroquine] | quercetin, imatinib, resveratrol, chloroquine, and melatonin for their ability to inhibit rhNQO2 activity in a cell-free system |  |
